pIC50: −log10 of the molar value.

The nature of this test: TarO Biochemical Enzymatic Assay: The TarO biochemical enzymatic assay is a liquid chromatography-mass spectroscopy (LC-MS) based end point assay that measures C55-P-P-GlcNAc (LIPID III) production. The TarO biochemical enzymatic assay was performed in a 384-well microtiter plate (Labcyte) with a reaction volume of 20 μl. The reaction mix contained 0.1 μgs/μl of TarO membrane preparation derived from MRSA COL (lysostaphin/lysozyme treated, centrifuged at 40K rpm, and re-suspended in 50 mM Tris pH 7.5, 10 mM MgCl2), 1500 μM UDP-GlcNAc, x 75 μM C55-P substrates in 83 mM Tris pH 8.0, 6.7 mM MgCl2, 6 mM CHAPS, and 8.3% DMSO buffer. The enzyme reactions were quenched by extraction in 40 μl of 1-pentanol containing 0.04 μM […] C55-PP-GlcNAc, which was used as an internal standard. A 10 μl volume of the quenched reaction mixture (pH≈3) from each well was injected onto a reversed-phase column (C4, 5 m, 2.1×50 mm, Thermo Scientific Biobacis-4) and eluted using a NH4Ac/H2O/MeOH gradient (solvent A: 10 mM NH4Ac in water, pH 5.6; solvent B: NH4Ac (1 M)-Isopropanol (1:90, v/v, pH 5.6). The HPLC conditions were as follows: 15% solvent B for 15 seconds followed by a gradient to 90% solvent B in 90 seconds; then solvent B was kept at 95% for 10 seconds followed by a gradient to 8% solvent B in 0.1 minute. The column was then equilibrated at 15% B for 1 minute before the next injection. The flow rate was kept constant at 600 μl/minute. Mass spectrometric detection was carried out in the negative-ion mode using selected reaction monitoring (SRM). Typical mass spectrometric conditions were as follows: heated capillary temperature, 210° C.; spray voltage, 2500 V; desolvation gas (N2), 40 l/h; auxiliary gas (N2), 35 l/h. Selected ion current (SIC) chromatograms of C55-PP-GlcNAc and internal standard 15C C55-PP-GlcNAc were plotted and integrated using LCQuan incorporated in Xcalibur software (ThermoFinnigan). The linearity of C55-PP-GlcNAc concentration versus mass spectrometric signal (AC55-PP-GlcNAc/A15C-C55-PP-GlcNAc) was determined with purified C55-PP-GlcNAc. The IC50 values were calculated using the nonlinear regression analysis (sigmoidal dose response fit allowing for a variable slope) of percent inhibition data with minimum and maximum values set to 0 and 100 percent.

`C[C@H]1CN(C(=O)NCc2cncc3ccccc23)C(=O)O[C@@H]1c1cc(C(F)(F)F)cc(C(F)(F)F)c1` (single isomer, unassigned): the pIC50 (as a rule, the IC50 on a negative log10 scale, so that one unit is a factor of ten) was 7.52.

Take `Cc1cccnc1CNC(=O)N1C(=O)O[C@H](c2cc(C(F)(F)F)cc(C(F)(F)F)c2)[C@@H]1C`: the pIC50 was 6.36.

Turning to `C[C@H]1[C@@H](c2cc(F)cc(C(F)(F)F)c2)OC(=O)N1C(=O)NCc1cccc2ncccc12`, the pIC50 is 6.07.

In the case of `C[C@H]1[C@@H](c2cc(C(F)(F)F)cc(C(F)(F)F)c2)OC(=O)N1C(=O)COc1cccc2ccccc12`, the pIC50 was 7.40.

Consider `C[C@H]1[C@@H](c2cccc(F)c2)OC(=O)N1C(=O)CCc1cncc2ccccc12`, for which the pIC50 is 5.52.

Turning to `C[C@H]1[C@@H](c2cc(F)cc(C3CC3)c2)OC(=O)N1C(=O)NCc1cncc2ccccc12`, the pIC50 was 6.62.

In the case of `C[C@@H]1NN(C(=O)NCc2cncc3ccccc23)C(=O)O[C@@H]1c1cc(F)cc(C(F)(F)F)c1`, the pIC50 is 6.02.

As for `C[C@H]1[C@@H](c2cccc(C(F)F)c2)OC(=O)N1C(=O)NCc1cncc2ccccc12`, the negative logarithm of the IC50 (pIC50) is 6.31.

With `C[C@H]1[C@@H](c2cc(C(F)(F)F)cc(C(F)(F)F)c2)OC(=O)N1C(=O)CCc1cccc2ccccc12`, the pIC50 is 8.00.

On to `O=C(NCc1cncc2ccccc12)N1C(=O)O[C@H](c2cc(F)cc(C(F)(F)F)c2)[C@@H]1CCO`, for which the pIC50 is 5.32.

With `Cc1cc(C)cc([C@H]2OC(=O)N(C(=O)CCc3cncc4ccccc34)[C@H]2C)c1`, the pIC50 is 5.97.

Regarding `C[C@H]1[C@@H](c2cc(F)cc(C(F)(F)F)c2)OC(=O)N1C(=O)NCc1cccc(N(C)C)c1`, the pIC50 was 7.40.

On to `COc1cc(C(F)(F)F)nc([C@@H]2OC(=O)N(C(=O)NCc3cncc4ccccc34)[C@H]2C)n1`, for which the pIC50 is 5.66.

For `C[C@H]1[C@@H](c2cc(F)cc(Br)c2)OC(=O)N1C(=O)NCc1cncc2ccccc12`, the pIC50 is 6.62.

In the case of `C[C@H]1[C@@H](c2cc(C(F)(F)F)cc(C(F)(F)F)c2)OC(=O)N1C(=O)CCc1cccc2ncccc12`, the pIC50 was 6.60.

For the compound `C[C@H]1[C@@H](c2cc(F)cc(C(F)(F)F)c2)OC(=O)N1C(=O)NCc1ccccc1OC(F)F`, the pIC50 is 7.70.

With `Cc1nc(C)c(CNC(=O)N2C(=O)O[C@H](c3cc(F)cc(C(F)(F)F)c3)[C@@H]2C)s1`, the pIC50 was 5.58.

Consider `COc1cc([C@H]2OC(=O)N(C(=O)NCc3cncc4cccnc34)C[C@H]2C)cc(C(F)(F)F)c1`, for which the pIC50 was 5.90.

Take `COc1cc(C(F)(F)F)cc([C@H]2OC(=O)N(C(=O)NCc3cncc4cccnc34)[C@H]2CO)n1`: the pIC50 was 6.06.

`Cc1ccccc1CNC(=O)N1C(=O)O[C@H](c2cc(F)cc(C(F)(F)F)c2)[C@@H]1C`: the pIC50 was 6.85.

For the compound `COc1ccccc1CNC(=O)N1C(=O)O[C@H](c2cccc(C(F)(F)F)c2)[C@@H]1C`, the pIC50 is 6.66.

Take `C[C@H]1[C@@H](c2cc(Br)cc(C(F)(F)F)c2)OC(=O)N1C(=O)CCc1cncc2ccccc12`: the pIC50 is 5.83.

As to `C[C@H]1[C@@H](c2cc(F)cc(C(F)(F)F)c2)OC(=O)N1C(=O)NCc1cccc2c1OCCO2`, the pIC50 was 7.30.

Turning to `C[C@H]1[C@@H](c2cc(C(F)(F)F)cc(C(F)(F)F)c2)OC(=O)N1C(=O)NCc1cnc2c(c1)CCC2`, the pIC50 is 5.73.

In the case of `C[C@H]1[C@@H](c2cc(C(F)(F)F)cc(C(F)(F)F)c2)OC(=O)N1C(=O)Cc1cccc2ccccc12`, the pIC50 is 6.89.

For `Cc1nc(C(C)C)sc1CNC(=O)N1C(=O)O[C@H](c2cc(F)cc(C(F)(F)F)c2)[C@@H]1C`, the pIC50 is 6.80.

Consider `C[C@H]1[C@@H](c2cc(F)cc(C(F)(F)F)c2)OC(=O)N1C(=O)NCc1cccc2cn[nH]c12`, for which the pIC50 was 5.85.

These data come from ChEMBL document CHEMBL5728748 (2021).
